Tests used:
nAChR subtype alpha7 = target: T1, nAChR subtype alpha7 (Homo sapiens, UniProt P36544); assay: nAChR agonist response (evoked current compared with ACh response) in cells expressing a nAChR subtype; assay type: cell-based; details: for agonist characterization at nAChR subtype alpha7: response relative to ACh response
T1 construct: expressed in transfected cells
Source text: (§1) In general, a nAChR agonist is a full agonist if it evokes a response upon binding to a given receptor that is equal or greater to that of ACh.
(§2) nAChR agonist response, from which receptor activation can be determined can, for example, be generated using an appropriate cell-based assay. Cells designed to express a particular nAChR receptor subtype and generate an electrical current response when bound to and activated by a nAChR agonist can be used to characterize the agonist profile of a compound and the amount of receptor activation thus determined. An example of a generic protocol is described below.
(§3) Cells that express a particular human nAChR subtype are first exposed to ACh. ACh binds and activates the receptor, thereby evoking a current. […] This current is recorded as the ACh response and serves as the 100% nAChR agonist response and to which responses to other nAChR agonists are compared. After washing, the cells are exposed to a nAChR agonist at various concentrations (e.g., 0.1, 0.3, 1, 3, 10, 30, 100, and 300 micromolar). The current evoked by exposure to the nAChR agonist is measured and recorded for each nAChR concentration. This nAChR agonist response data is then normalized to unity versus the maximal ACh evoked current and plotted as a function of the logarithm of the nAChR agonist concentration. The nAChR agonist response is then calculated as a percentage of the ACh response.
(§4) A nAChR agonist evoking a response equal to or greater than the maximum ACh response determined at the same receptor type is a full agonist. In some cases, a nAChR agonist evoking a response of less than 100% of the ACh response may still be characterized a full agonist, taking into account experimental variability. […] In some cases, a nAChR agonist evoking 90% of the ACh response or greater is considered a full agonist. […] In some cases, a nAChR agonist evoking 80% of the ACh response or greater is considered a full agonist.

[1] = test system: T2, nAChR subtype alpha3alpha5beta4 (Homo sapiens); assay: as above; assay type: cell-based; details: response relative to ACh response
T2 construct: expressed in transfected cells
Source text: as §1, §2, §3, §4

[2] = target: T3, nAChR subtype alpha4alpha6beta2 (Homo sapiens, UniProt P17787+P43681+Q15825); assay: as above; assay type: cell-based; details: response relative to ACh response
T3 construct: expressed in transfected cells
Source text: as §1, §2, §3, §4

[3] = target: T4, nAChR subtype alpha4beta2 (Homo sapiens, UniProt P17787+P43681); assay: as above; assay type: cell-based; details: response relative to ACh response
T4 construct: expressed in transfected cells
Source text: as §1, §2, §3, §4

[4] = target: T5, nAChR subtype alpha3beta4 (Homo sapiens, UniProt P30926+P32297); assay: as above; assay type: cell-based; details: response relative to ACh response
T5 construct: expressed in transfected cells
Source text: as §1, §2, §3, §4

[5] = target: T6, nAChR subtype alpha6beta2 (Homo sapiens, UniProt P17787+Q15825); assay: as above; assay type: cell-based; details: response relative to ACh response
T6 construct: expressed in transfected cells
Source text: as §1, §2
(§5) Cells that express a particular human nAChR subtype are first exposed to ACh. ACh binds and activates the receptor, thereby evoking a current. The concentration of the ACh is chosen to elicit the maximum response of the receptor (e.g., 1280 micromolar ACh). This current is recorded as the ACh response and serves as the 100% nAChR agonist response and to which responses to other nAChR agonists are compared. […] The current evoked by exposure to the nAChR agonist is measured and recorded for each nAChR concentration. […] The nAChR agonist response is then calculated as a percentage of the ACh response.
(§6) A nAChR agonist evoking a response equal to or greater than the maximum ACh response determined at the same receptor type is a full agonist. […]

tear film [6] = assay: hNGF concentration in tear film collected on Schirmer test strips (ELISA), with and without intranasal varenicline; assay type: in vivo, Dutch-Belted rabbits; details: rabbits given rAAV9.hNGF intralacrimally; intranasal varenicline on days 21, 28 and 41
Procedure: FIG. 8 is a plot showing the concentration of hNGF in tear film in animals treated with AAV.hNGF and varenicline. Protein concentration was measured using Schirmer tear strips to collect tear film from Dutch-belted rabbits at the indicated number of days following intralacrimal administration of AAV2.hNGF, AAV5.hNGF, or AAV9.hNGF. At days 21, 28, and 41, tear film was collected following the intranasal administration of the tear inducing agent, varenicline. Control animals had no injection of AAV.
A Schirmer tear test was performed to collect eye moisture from the animals on Days 7, 14, 21, 28, 41, and 42. Test strips were placed inside the lower eyelid for approximately 1 minute. The paper was removed and placed into separate tubes and frozen at −80° C. for subsequent analysis. Schirmer test strips were collected following intranasal administration of varenicline on Days 21, 28, and 41. Test strips were placed inside the lower eyelid for approximately 1 minute. The paper was removed and placed into separate tubes and frozen at −80° ° C. for subsequent analysis. Protein content absorbed onto Schirmer's test strips was analyzed for concentration of hNGF by ELISA assay.
A Schirmer tear test was performed to collect eye moisture from the animals on Days 7, 14, 21, 28, 41, and 42. […] Protein content absorbed onto Schirmer's test strips was analyzed for concentration of hNGF by ELISA assay.

tear film [7] = assay: Mesoscale discovery (MSD) assay of hNGFβ in porcine tears after lacrimal gland transduction; assay type: in vivo, pigs (Sus scrofa domesticus); details: pigs given AAV9-hNGFβ; Day 28 (0.03 mg varenicline solution each nostril) vs Day 21 and Day 35 (no nasal spray); data not shown
[8] = target: T7, nAChR subtype alpha3beta2 (Homo sapiens, UniProt P17787+P32297); assay: nAChR agonist response (evoked current compared with ACh response) in cells expressing a nAChR subtype; assay type: cell-based; details: response relative to ACh response
T7 construct: expressed in transfected cells
Source text: as §1, §2, §5, §6

subjects with dry eye = details: 28-day course of 0.1% ophthalmic formulation, Phase II; cited from earlier work

T1 sequence (P36544 23-502): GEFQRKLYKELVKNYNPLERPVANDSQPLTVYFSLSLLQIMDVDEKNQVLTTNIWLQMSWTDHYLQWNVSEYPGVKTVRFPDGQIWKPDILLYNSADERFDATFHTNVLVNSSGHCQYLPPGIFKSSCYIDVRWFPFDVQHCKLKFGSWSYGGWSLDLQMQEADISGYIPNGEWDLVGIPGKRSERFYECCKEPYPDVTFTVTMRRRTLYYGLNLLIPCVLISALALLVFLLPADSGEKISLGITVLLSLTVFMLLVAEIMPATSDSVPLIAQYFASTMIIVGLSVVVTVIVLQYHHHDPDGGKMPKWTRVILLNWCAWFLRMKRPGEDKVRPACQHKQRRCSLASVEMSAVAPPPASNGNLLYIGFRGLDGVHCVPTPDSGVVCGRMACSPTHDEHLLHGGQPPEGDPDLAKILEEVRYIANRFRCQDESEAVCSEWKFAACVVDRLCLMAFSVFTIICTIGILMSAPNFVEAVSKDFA
T5 sequence (P32297 32-505): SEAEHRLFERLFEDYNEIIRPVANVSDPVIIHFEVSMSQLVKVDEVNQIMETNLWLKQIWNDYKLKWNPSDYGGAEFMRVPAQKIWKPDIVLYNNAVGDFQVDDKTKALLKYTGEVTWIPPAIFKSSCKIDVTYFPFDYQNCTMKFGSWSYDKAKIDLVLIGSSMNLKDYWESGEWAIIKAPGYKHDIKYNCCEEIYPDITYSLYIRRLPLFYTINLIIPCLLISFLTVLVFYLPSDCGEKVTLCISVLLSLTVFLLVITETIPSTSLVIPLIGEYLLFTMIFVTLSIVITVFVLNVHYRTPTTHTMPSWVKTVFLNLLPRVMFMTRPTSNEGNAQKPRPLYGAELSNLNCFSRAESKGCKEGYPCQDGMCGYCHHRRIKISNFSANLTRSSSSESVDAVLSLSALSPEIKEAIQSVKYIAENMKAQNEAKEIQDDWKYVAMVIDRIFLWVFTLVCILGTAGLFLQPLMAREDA
T5 sequence (P30926 22-498): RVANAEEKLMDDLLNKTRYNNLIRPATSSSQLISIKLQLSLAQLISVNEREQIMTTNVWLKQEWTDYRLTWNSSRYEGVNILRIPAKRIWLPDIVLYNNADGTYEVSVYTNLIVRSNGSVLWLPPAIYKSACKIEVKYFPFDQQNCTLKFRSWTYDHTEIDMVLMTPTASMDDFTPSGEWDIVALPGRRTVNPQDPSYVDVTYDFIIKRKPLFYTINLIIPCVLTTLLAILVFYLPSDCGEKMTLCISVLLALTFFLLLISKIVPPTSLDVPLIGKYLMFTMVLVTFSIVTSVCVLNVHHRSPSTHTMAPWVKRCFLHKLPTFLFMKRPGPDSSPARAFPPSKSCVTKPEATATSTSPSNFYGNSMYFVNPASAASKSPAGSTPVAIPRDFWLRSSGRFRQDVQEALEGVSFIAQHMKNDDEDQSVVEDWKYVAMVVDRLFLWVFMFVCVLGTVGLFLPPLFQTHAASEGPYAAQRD
T2 sequence (P32297 32-505): as the sequence (P32297 32-505) above
T2 sequence (P30532 23-468 partner): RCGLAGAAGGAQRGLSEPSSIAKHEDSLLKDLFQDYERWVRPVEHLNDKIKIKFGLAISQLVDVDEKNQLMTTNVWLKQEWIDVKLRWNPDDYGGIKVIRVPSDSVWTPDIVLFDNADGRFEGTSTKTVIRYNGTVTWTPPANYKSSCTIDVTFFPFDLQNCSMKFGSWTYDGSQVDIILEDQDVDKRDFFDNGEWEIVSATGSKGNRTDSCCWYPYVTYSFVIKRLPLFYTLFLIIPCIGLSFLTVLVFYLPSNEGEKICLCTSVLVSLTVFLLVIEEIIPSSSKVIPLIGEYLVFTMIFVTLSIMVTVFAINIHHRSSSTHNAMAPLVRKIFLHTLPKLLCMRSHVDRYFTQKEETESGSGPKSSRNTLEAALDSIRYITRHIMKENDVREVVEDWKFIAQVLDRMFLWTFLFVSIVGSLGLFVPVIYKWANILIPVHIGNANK
T2 sequence (P30926 22-498, further chain): as the sequence (P30926 22-498) above
T3 sequence (P43681 29-627 limits assumed): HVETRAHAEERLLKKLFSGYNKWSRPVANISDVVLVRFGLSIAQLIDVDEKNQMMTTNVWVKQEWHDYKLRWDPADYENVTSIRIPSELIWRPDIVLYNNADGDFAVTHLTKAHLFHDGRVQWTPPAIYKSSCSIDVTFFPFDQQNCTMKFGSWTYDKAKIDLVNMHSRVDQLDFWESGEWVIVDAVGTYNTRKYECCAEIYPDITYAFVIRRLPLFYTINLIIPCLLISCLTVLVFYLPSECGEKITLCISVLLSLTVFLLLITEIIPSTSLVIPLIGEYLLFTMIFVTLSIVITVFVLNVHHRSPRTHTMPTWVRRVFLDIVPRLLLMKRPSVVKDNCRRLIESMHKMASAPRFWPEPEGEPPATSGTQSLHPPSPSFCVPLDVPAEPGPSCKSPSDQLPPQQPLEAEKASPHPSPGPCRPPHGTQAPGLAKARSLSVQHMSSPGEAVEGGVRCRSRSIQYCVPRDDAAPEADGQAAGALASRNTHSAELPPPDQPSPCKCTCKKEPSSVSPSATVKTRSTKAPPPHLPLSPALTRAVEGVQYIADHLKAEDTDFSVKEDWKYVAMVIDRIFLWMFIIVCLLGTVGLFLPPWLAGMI
T3 sequence (Q15825 26-494): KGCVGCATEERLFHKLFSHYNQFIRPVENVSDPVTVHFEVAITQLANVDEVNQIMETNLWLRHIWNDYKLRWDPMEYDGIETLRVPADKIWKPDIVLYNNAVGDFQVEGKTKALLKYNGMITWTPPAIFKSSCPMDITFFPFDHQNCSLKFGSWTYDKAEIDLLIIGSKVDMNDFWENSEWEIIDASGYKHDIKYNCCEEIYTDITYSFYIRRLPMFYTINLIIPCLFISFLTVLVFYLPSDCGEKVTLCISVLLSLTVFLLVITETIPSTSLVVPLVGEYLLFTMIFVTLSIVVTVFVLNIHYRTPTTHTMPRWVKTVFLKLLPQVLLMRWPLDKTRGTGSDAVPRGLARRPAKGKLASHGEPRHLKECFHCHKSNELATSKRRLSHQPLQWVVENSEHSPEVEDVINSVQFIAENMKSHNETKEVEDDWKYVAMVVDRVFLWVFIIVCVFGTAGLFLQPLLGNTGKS
T3 sequence (P17787 26-502): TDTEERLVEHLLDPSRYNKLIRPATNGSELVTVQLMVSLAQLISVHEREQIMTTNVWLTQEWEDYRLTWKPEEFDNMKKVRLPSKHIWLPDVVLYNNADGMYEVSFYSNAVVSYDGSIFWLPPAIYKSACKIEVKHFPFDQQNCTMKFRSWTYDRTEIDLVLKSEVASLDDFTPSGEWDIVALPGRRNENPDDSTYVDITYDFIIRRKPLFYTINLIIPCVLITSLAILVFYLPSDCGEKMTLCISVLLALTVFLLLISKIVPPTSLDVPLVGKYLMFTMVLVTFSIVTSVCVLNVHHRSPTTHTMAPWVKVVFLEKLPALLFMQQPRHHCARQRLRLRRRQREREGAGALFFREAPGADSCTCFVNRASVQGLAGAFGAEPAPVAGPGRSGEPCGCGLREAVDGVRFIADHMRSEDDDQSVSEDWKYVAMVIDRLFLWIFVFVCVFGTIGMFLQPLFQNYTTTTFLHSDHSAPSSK
T4 sequence (P43681 29-627 limits assumed): as the sequence (P43681 29-627 limits assumed) above
T4 sequence (P17787 26-502): as the sequence (P17787 26-502) above
T7 sequence (P32297 32-505): as the sequence (P32297 32-505) above
T7 sequence (P17787 26-502): as the sequence (P17787 26-502) above
T6 sequence (Q15825 26-494): as the sequence (Q15825 26-494) above
T6 sequence (P17787 26-502): as the sequence (P17787 26-502) above

Compound | percent of the maximal ACh-evoked current (nAChR subtype alpha7; 300 micromolar concentration, subtype alpha7) | agonist characterization at nAChR subtype alpha3alpha5beta4 [1] | agonist characterization at nAChR subtype alpha4alpha6beta2 [2] | agonist characterization at nAChR subtype alpha7 (nAChR subtype alpha7) | agonist characterization at nAChR subtype alpha4beta2 [3] | agonist characterization at nAChR subtype alpha3beta4 [4] | agonist characterization at nAChR subtype alpha6beta2 [5] | increase of hNGF concentration in the Schirmer strip over the levels measured at the 7 and 14 day collections (tear film [6]) | effect of nasal spray on tear hNGFβ protein concentration (tear film [7]) | agonist characterization at nAChR subtype alpha3beta2 [8] | effect on corneal staining (subjects with dry eye) | effect on ocular discomfort (subjects with dry eye)
C(=C\[C@H]1CCNC1)/c1cncnc1.O=C(O)CC(O)(CC(=O)O)C(=O)O [compound 1 citrate, (R)-5-((E)-2-pyrrolidin-3-ylvinyl)pyrimidine mono-citrate] | 25% |  |  |  |  |  |  |  |  |  |  | 
O=C(O)C(O)C(O)C(=O)O.c1cnc2cc3c(cc2n1)C1CNCC3C1 [Varenicline, varenicline] |  | partial agonist | partial agonist | full agonist | partial agonist | partial agonist | partial agonist | up to 3 fold | increased tear hNGFβ protein concentration |  |  | 
C(=C\[C@H]1CCNC1)/c1cncnc1 [Compound 1, (R)-5-((E)-2-pyrrolidin-3-ylvinyl)pyrimidine] |  | full agonist | full agonist | weak partial agonist | full agonist | full agonist |  |  |  | partial agonist |  | 
Tβ4: 43-amino acid peptide, SEQ ID NO: 26; tested as 0.1% Tβ4 ophthalmic formulation (SDKPDMAEIEKFDKSKLKKTETQEKNPLPSKETIEQEKQAGES; listed as Homo sapiens) |  |  |  |  |  |  |  |  |  |  | significant positive effects | significant positive effects

Source: patent publication US20240226109A1, “CO-THERAPY WITH VECTOR AND NICOTINIC AGONIST” (OYSTER POINT PHARMA, INC., priority 2021, published 2024)
